pIC50: −log10 of the molar value. Blank lines part the entries; values can stand above or below the compound they belong to.
What was measured:
[1] = target: T1, Platelet-derived growth factor receptor alpha (Homo sapiens, UniProt P16234); test: Selectivity interaction (NanoBRET assay (HEK293T cells)) EUB0000321b PDGFRA
[2] = target: T2, Platelet-derived growth factor receptor beta (Homo sapiens, UniProt P09619); test: Selectivity interaction (KinomeScan (DiscoverX)) EUB0000321b PDGFRB; conditions: at 100 nM
[3] = target: Dual specificity tyrosine-phosphorylation-regulated kinase 1A (Homo sapiens, UniProt Q13627); test: Selectivity interaction (KinomeScan (DiscoverX)) EUB0000321b DYRK1A; conditions: at 100 nM
[4] = target: Mitogen-activated protein kinase kinase kinase 5 (Homo sapiens) (UniProt Q99683); test: Selectivity interaction (KinomeScan (DiscoverX)) EUB0000321b MAP3K5; conditions: at 100 nM
[5] = target: T3, Dual specificity mitogen-activated protein kinase kinase 5 (Homo sapiens) (UniProt Q13163); test: Selectivity interaction (KinomeScan (DiscoverX)) EUB0000321b MAP2K5; conditions: at 100 nM
T3 sequence (whole entry): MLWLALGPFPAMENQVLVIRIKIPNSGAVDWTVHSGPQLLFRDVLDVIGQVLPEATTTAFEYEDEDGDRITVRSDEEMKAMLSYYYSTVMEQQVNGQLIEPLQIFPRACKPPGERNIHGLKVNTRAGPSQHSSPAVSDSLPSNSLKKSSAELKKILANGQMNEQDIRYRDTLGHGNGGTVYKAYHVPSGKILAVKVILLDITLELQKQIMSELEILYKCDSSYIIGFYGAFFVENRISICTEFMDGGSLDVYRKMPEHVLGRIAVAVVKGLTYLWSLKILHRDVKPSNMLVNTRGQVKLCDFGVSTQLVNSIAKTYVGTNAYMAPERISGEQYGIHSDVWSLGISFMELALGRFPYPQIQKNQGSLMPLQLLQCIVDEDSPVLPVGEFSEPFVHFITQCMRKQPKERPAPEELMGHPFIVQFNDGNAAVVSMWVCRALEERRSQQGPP

[6] = target: T4, Dual specificity mitogen-activated protein kinase kinase 5 (Homo sapiens, UniProt Q13163); test: Selectivity interaction (NanoBRET assay (HEK293T cells)) EUB0000321b MAP2K5
T4 sequence (Q13163 whole entry): T3 sequence (whole entry)

[7] = target: Mitogen-activated protein kinase kinase kinase 5 (Homo sapiens, UniProt Q99683); test: Selectivity interaction (NanoBRET assay (HEK293T cells)) EUB0000321b MAP3K5
[8] = target: T5, Mast/stem cell growth factor receptor Kit (Homo sapiens, UniProt P10721); test: Selectivity interaction (NanoBRET assay (HEK293T cells)) EUB0000321b KIT
[9] = target: T2, Platelet-derived growth factor receptor beta; test: Selectivity interaction (NanoBRET assay (HEK293T cells)) EUB0000321b PDGFRB
[10] = target: Receptor-type tyrosine-protein kinase FLT3 (Homo sapiens, UniProt P36888); test: (§1) Selectivity interaction (NanoBRET assay (HEK293T cells)) EUB0000321b FLT3
[11] = target: Receptor-type tyrosine-protein kinase FLT3 (Homo sapiens, UniProt P36888, D835V); test: as §1
[12] = target: T1, Platelet-derived growth factor receptor alpha; test: Selectivity interaction (KinomeScan (DiscoverX)) EUB0000321b PDGFRA; conditions: at 100 nM
[13] = target: Dual specificity tyrosine-phosphorylation-regulated kinase 1B (Homo sapiens, UniProt Q9Y463); test: Selectivity interaction (KinomeScan (DiscoverX)) EUB0000321b DYRK1B; conditions: at 100 nM
[14] = target: T5, Mast/stem cell growth factor receptor Kit; test: Selectivity interaction (KinomeScan (DiscoverX)) EUB0000321b KIT; conditions: at 100 nM
[15] = target: T6, Serine/threonine-protein kinase 38-like (Homo sapiens, UniProt Q9Y2H1); test: Selectivity interaction (KinomeScan (DiscoverX)) EUB0000712a STK38L; conditions: at 1 µM
[16] = target: Serine/threonine-protein kinase B-raf (Homo sapiens, UniProt P15056); test: Selectivity interaction (NanoBRET assay (HEK293T cells)) EUB0000712a BRAF
[17] = target: T7, Serine/threonine-protein kinase Chk2 (Homo sapiens, UniProt O96017); test: Selectivity interaction (NanoBRET assay (HEK293T cells)) EUB0000712a CHEK2
[18] = target: T6, Serine/threonine-protein kinase 38-like; test: Selectivity interaction (NanoBRET assay (HEK293T cells)) EUB0000712a STK38L
Mu-type opioid receptor = Mu-type opioid receptor (Homo sapiens, UniProt P35372); test: Selectivity interaction (GPCR panel (PDSP screen)) EUB0000712a OPRM1; conditions: at 10 µM
[19] = target: Phosphatidylinositol 4,5-bisphosphate 3-kinase catalytic subunit alpha isoform (Homo sapiens, UniProt P42336); test: Selectivity interaction (KinomeScan (DiscoverX)) EUB0000712a PIK3CA; conditions: at 1 µM
[20] = target: Receptor-interacting serine/threonine-protein kinase 2 (Homo sapiens) (UniProt O43353); test: Selectivity interaction (KinomeScan (DiscoverX)) EUB0000712a RIPK2; conditions: at 1 µM
[21] = target: T7, Serine/threonine-protein kinase Chk2; test: Selectivity interaction (KinomeScan (DiscoverX)) EUB0000712a CHEK2; conditions: at 1 µM

T7 sequence (O96017 whole entry): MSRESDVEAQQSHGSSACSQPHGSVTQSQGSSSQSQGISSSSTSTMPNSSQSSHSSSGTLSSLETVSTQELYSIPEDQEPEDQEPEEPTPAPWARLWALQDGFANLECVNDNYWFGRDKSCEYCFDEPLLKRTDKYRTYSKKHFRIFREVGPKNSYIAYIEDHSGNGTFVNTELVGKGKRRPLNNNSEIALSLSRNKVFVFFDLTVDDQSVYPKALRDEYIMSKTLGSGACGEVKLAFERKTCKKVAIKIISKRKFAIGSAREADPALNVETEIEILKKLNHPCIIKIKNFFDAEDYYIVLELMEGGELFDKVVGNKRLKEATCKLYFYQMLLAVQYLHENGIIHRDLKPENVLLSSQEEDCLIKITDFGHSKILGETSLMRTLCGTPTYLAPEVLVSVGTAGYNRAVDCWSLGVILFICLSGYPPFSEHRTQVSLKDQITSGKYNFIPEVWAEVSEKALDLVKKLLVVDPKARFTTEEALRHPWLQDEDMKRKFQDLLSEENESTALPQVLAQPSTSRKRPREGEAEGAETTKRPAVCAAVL
T1 sequence (P16234 whole entry): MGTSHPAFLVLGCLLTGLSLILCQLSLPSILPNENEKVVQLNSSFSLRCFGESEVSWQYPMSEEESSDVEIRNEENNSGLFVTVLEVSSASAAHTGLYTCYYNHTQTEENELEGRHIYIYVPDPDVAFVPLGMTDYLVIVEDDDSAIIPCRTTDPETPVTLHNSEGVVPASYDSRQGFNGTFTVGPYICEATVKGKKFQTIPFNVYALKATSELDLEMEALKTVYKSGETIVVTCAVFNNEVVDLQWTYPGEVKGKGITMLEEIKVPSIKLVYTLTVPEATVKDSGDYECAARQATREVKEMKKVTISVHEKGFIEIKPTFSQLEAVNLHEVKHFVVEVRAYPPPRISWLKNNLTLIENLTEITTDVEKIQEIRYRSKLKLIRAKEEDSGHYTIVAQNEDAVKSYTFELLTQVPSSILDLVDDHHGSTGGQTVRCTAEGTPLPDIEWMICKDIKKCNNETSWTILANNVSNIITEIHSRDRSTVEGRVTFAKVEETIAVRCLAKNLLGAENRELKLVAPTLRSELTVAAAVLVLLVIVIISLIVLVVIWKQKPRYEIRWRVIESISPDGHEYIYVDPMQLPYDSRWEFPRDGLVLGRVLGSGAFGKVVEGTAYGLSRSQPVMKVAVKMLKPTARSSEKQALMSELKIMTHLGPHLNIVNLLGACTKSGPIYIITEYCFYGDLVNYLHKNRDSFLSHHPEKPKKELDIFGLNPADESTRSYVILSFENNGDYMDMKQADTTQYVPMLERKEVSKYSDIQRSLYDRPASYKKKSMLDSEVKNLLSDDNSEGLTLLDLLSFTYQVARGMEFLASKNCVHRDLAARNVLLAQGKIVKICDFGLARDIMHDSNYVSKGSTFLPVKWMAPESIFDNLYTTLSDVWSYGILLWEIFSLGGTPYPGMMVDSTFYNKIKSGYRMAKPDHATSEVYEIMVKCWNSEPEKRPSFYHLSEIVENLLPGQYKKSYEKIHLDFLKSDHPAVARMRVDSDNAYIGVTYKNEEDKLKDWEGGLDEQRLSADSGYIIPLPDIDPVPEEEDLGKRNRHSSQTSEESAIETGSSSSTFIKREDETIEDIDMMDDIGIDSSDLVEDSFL
T2 sequence (P09619 whole entry): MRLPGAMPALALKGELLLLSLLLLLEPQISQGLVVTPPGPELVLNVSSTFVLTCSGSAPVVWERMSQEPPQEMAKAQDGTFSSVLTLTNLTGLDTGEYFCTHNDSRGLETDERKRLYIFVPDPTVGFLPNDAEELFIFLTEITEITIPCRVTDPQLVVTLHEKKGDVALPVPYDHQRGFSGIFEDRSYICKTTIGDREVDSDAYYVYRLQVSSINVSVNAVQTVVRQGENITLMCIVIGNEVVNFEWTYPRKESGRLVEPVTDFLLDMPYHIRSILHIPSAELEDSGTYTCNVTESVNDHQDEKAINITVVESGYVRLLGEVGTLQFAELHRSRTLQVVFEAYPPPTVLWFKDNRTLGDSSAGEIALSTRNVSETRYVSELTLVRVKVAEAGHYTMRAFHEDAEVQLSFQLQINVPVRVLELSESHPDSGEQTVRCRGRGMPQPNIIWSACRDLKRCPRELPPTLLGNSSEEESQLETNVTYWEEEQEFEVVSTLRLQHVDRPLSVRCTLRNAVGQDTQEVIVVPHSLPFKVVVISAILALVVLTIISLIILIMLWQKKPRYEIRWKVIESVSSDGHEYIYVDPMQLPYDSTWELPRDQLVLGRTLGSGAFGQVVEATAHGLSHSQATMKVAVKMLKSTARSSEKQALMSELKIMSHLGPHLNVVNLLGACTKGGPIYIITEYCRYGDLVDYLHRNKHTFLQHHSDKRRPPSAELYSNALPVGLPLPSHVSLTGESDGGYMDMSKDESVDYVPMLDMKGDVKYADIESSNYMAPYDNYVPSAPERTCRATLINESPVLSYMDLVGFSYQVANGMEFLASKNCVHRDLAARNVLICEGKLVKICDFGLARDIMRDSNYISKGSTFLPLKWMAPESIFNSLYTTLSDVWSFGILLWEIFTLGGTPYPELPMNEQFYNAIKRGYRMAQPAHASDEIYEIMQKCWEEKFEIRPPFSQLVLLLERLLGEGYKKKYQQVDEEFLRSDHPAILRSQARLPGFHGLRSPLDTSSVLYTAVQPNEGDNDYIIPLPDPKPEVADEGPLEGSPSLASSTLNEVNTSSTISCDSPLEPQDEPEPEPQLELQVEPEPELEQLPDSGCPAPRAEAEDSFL
T5 sequence (P10721 whole entry): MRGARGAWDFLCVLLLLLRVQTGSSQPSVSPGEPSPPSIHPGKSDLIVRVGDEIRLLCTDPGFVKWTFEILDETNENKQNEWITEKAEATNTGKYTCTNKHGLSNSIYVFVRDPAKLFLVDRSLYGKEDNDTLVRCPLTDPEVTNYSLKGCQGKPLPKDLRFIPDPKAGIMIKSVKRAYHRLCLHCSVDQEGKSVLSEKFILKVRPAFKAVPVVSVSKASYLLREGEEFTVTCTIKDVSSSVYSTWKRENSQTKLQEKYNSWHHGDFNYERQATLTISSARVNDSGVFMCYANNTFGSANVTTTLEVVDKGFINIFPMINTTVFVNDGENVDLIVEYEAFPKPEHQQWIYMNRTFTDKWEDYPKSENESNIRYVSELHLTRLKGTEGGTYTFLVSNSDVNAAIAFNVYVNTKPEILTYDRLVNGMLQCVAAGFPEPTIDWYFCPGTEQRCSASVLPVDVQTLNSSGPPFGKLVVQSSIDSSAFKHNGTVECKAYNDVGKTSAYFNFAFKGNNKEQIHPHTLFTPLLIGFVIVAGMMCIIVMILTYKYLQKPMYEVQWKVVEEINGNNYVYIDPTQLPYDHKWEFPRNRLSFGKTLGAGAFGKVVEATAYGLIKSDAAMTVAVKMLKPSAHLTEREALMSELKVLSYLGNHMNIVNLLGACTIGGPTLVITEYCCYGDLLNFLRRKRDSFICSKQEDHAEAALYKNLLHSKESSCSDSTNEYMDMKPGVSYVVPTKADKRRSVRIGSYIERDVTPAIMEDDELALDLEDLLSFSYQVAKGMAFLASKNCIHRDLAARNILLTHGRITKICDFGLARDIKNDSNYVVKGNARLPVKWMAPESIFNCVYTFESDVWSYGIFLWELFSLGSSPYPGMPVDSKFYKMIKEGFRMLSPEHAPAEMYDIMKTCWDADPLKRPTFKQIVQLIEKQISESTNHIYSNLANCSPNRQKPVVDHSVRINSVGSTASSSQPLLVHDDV
Sequence of Receptor-interacting serine/threonine-protein kinase 2 (Homo sapiens) (O43353 whole entry): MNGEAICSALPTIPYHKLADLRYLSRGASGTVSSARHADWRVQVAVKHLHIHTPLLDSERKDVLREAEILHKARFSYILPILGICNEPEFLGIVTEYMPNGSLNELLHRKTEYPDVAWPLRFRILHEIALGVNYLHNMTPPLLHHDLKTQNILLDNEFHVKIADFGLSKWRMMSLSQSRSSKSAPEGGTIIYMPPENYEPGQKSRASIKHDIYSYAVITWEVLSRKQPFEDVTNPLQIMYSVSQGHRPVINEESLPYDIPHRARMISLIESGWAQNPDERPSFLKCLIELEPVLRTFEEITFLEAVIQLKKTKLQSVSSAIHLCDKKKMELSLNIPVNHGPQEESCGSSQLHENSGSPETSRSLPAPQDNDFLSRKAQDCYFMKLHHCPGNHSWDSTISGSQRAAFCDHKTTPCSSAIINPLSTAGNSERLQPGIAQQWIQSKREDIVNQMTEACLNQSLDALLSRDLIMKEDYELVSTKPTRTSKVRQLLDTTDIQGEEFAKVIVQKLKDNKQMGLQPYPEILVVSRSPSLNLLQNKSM
Sequence of Dual specificity tyrosine-phosphorylation-regulated kinase 1B (Q9Y463 whole entry, looked up): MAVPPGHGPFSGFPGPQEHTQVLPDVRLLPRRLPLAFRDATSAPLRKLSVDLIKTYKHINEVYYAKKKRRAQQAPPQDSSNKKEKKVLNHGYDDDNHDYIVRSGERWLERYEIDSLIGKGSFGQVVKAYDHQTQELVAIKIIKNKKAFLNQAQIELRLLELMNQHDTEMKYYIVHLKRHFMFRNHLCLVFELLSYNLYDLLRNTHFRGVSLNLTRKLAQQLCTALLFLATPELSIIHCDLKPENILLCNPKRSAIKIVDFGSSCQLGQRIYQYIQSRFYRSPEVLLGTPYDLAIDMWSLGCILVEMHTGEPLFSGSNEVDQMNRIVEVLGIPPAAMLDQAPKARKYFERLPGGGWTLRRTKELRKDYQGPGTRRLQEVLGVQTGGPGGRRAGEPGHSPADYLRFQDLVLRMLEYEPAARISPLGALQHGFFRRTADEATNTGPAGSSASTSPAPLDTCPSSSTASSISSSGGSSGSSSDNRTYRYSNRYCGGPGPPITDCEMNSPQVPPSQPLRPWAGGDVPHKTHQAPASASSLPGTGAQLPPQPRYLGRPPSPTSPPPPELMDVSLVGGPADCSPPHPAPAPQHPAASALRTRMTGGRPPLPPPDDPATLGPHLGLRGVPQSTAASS

pIC50 [1]: 5.60 | % of control [2]: 24% | % of control [3]: 0.3% | % of control [4]: 19% | % of control [5]: 4.9% | pIC50 [6]: < 5.00 | pIC50 [7]: < 5.00 | pIC50 [8]: 5.61 | pIC50 [9]: 5.52 | pIC50 [10]: 5.61 | pIC50 [11]: 3.86 | % of control [12]: 29% | % of control [13]: 4.4% | % of control [14]: 14%
SMILES: CN1CCN(C(=O)C(C)(C)c2ccc(C(=O)Nc3cn4cc(-c5ccncc5)ccc4n3)cc2)CC1 [T3-CLK]

% of control [15]: 40% | pIC50 [16]: < 4.60 | pIC50 [17]: < 4.60 | pIC50 [18]: < 4.60 | % of inhibition (Mu-type opioid receptor): 45.3% | % of control [19]: 37% | % of control [20]: 30% | % of control [21]: 37%
SMILES: CS(=O)(=O)N1CCCC(NC(=O)[C@H](CCC2CCCCC2)NC(=O)c2ccc(CNC(=O)c3cnc4ccccn34)cc2)C1 (some centres not stated) [SR-302]
